Consider two molecules from ChEMBL document CHEMBL5131547, “Novel Halomethylketone Azadipeptides for Treating COVID-19” (ACS Med Chem Lett, 2022).

The IC50 is the concentration needed to halve the response being measured.

Each structure is given as a SMILES string.

For the experiment, the target named is Replicase polyprotein 1ab (Severe acute respiratory syndrome coronavirus 2, UniProt P0DTD1). Briefly: Inhibition of recombinant SARS-CoV-2 3CLpro expressed in Escherichia coli BL21 DE3 using FAM-KTSAVLQSGFRKMEK-TAMRA fluorogenic peptide as substrate preincubated for 1 hr followed by substrate addition measured after 30 mins by FRET assay.

With `CC(C)C[C@H](NC(=O)c1cc2ccccc2[nH]1)C(=O)NN(C[C@H]1CCNC1=O)C(=O)CCl`, the IC50 was 3 nM. Take `CC(C)C[C@H](NC(=O)OCc1ccccc1)C(=O)NN(CC1CCCNC1=O)C(=O)CCl` (some centres not stated): the IC50 amounted to 5 nM.
